Reference: PubChem BioAssay (NCI)
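How tested: cells in 96-well plates exposed to compound for 48 hours at five concentrations. GI50 is the concentration that inhibits growth by half. TGI is the concentration that stops growth completely.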

Columns and labels:
Assay in all cases: DTP human tumour cell line panel, 48 h
HL-60(TB) leukemia = system: HL-60(TB) leukemia
CAKI-1 renal = system: CAKI-1 renal
UACC-257 melanoma = system: UACC-257 melanoma
TK-10 renal = system: TK-10 renal
NCI-H226 lung = system: NCI-H226 lung
NCI-H23 lung = system: NCI-H23 lung
UO-31 renal = system: UO-31 renal
OVCAR-5 ovarian = system: OVCAR-5 ovarian
SK-OV-3 ovarian = system: SK-OV-3 ovarian
MALME-3M melanoma = system: MALME-3M melanoma

## CCOC(=O)c1ccccc1OC(=O)NNc1ccccc1
HL-60(TB) leukemia
  GI50: 0.365 µM
CAKI-1 renal
  GI50: 0.377 µM
  TGI: > 100 µM
UACC-257 melanoma
  GI50: 5.61 µM
  TGI: > 100 µM
TK-10 renal
  GI50: 7.05 µM
  TGI: > 100 µM
NCI-H226 lung
  GI50: > 23.7 µM
  TGI: > 100 µM
NCI-H23 lung
  GI50: 30.3 µM
  TGI: > 100 µM
UO-31 renal
  GI50: 0.535 µM
  TGI: > 100 µM
OVCAR-5 ovarian
  GI50: 5.34 µM
  TGI: > 100 µM
SK-OV-3 ovarian
  GI50: > 79.9 µM
  TGI: > 100 µM
MALME-3M melanoma
  GI50: 5.44 µM
  TGI: > 100 µM

## NC1=CC(=O)c2cccnc2C1=O
HL-60(TB) leukemia
  GI50: 1.05 µM
  TGI: 3.99 µM
CAKI-1 renal
  GI50: 1.59 µM
  TGI: 3.15 µM
UACC-257 melanoma
  GI50: 1.54 µM
  TGI: 2.9 µM
TK-10 renal
  GI50: 15.6 µM
  TGI: 29.2 µM
NCI-H226 lung
  GI50: 7.61 µM
  TGI: 27.7 µM
NCI-H23 lung
  GI50: 1.34 µM
  TGI: 4.14 µM
UO-31 renal
  GI50: 1.17 µM
  TGI: 2.5 µM
OVCAR-5 ovarian
  GI50: 2.05 µM
  TGI: 4.72 µM
SK-OV-3 ovarian
  GI50: 4.26 µM
  TGI: 17.8 µM
MALME-3M melanoma
  GI50: 1.7 µM
  TGI: 3.11 µM

## CCOC(=O)c1ccc2c(c1)Cc1cc([N+](=O)[O-])ccc1-2
HL-60(TB) leukemia
  TGI: > 100 µM
CAKI-1 renal
  TGI: > 100 µM
UACC-257 melanoma
  TGI: > 100 µM
TK-10 renal
  TGI: 86.5 µM
NCI-H226 lung
  TGI: 51.2 µM
NCI-H23 lung
  TGI: > 100 µM
UO-31 renal
  TGI: > 100 µM
OVCAR-5 ovarian
  TGI: > 100 µM
SK-OV-3 ovarian
  TGI: > 100 µM
MALME-3M melanoma
  TGI: > 100 µM

## CCCCCCCC/C=C/CCCCCCCC1=NC(C)(C)CN1CC(C)O (stereo unspecified)
HL-60(TB) leukemia
  GI50: 1.88 µM
  TGI: 4.44 µM
CAKI-1 renal
  GI50: 1.53 µM
  TGI: 3 µM
UACC-257 melanoma
  GI50: 1.85 µM
  TGI: 3.54 µM
TK-10 renal
  GI50: 2.73 µM
  TGI: 7.49 µM
NCI-H226 lung
  GI50: 6.25 µM
  TGI: 23.7 µM
NCI-H23 lung
  GI50: 3.11 µM
  TGI: 7.99 µM
UO-31 renal
  GI50: 1.63 µM
  TGI: 4.19 µM
OVCAR-5 ovarian
  GI50: 3.6 µM
  TGI: 10.4 µM
SK-OV-3 ovarian
  GI50: 7.64 µM
  TGI: 21.1 µM
MALME-3M melanoma
  GI50: 1.97 µM
  TGI: 4.67 µM

## CN1C(=O)CCC2[C@@H]3CC=C4C[C@@H](O)CC[C@]4(C)C3CC[C@@]21C (stereo partly specified)
HL-60(TB) leukemia
  TGI: 56 µM
CAKI-1 renal
  TGI: > 100 µM
UACC-257 melanoma
  TGI: > 100 µM
TK-10 renal
  TGI: > 100 µM
NCI-H226 lung
  TGI: > 100 µM
NCI-H23 lung
  TGI: > 100 µM
UO-31 renal
  TGI: > 100 µM
OVCAR-5 ovarian
  TGI: > 100 µM
SK-OV-3 ovarian
  TGI: > 100 µM
MALME-3M melanoma
  TGI: > 100 µM

## COc1c(O)c(OC)c2oc(-c3ccc(O)c(O)c3)c(OC)c(=O)c2c1O
HL-60(TB) leukemia
  TGI: 68.7 µM
CAKI-1 renal
  TGI: > 100 µM
UACC-257 melanoma
  TGI: > 100 µM
TK-10 renal
  TGI: 99.5 µM
NCI-H226 lung
  TGI: > 100 µM
NCI-H23 lung
  TGI: > 100 µM
UO-31 renal
  TGI: 89.8 µM
OVCAR-5 ovarian
  TGI: > 100 µM
SK-OV-3 ovarian
  TGI: 54.4 µM
MALME-3M melanoma
  TGI: 68 µM

## COc1ccc2sc3cccc(NCCN(C)C)c3c(=O)c2c1
HL-60(TB) leukemia
  GI50: 2.16 µM
  TGI: 4.74 µM
CAKI-1 renal
  GI50: 3.72 µM
  TGI: 15.5 µM
UACC-257 melanoma
  GI50: 1.78 µM
  TGI: 3.32 µM
TK-10 renal
  GI50: 4.06 µM
  TGI: 14.3 µM
NCI-H226 lung
  GI50: 3.34 µM
  TGI: 14.1 µM
NCI-H23 lung
  GI50: 3.64 µM
  TGI: 14.2 µM
UO-31 renal
  GI50: 2.06 µM
  TGI: 6.97 µM
OVCAR-5 ovarian
  GI50: 3.42 µM
  TGI: 14.5 µM
SK-OV-3 ovarian
  GI50: 4.26 µM
  TGI: 15 µM
MALME-3M melanoma
  GI50: 1.95 µM
  TGI: 3.88 µM

## c1ccc([CH2][Sn]([CH2]c2ccccc2)([O]c2cccc3cccnc23)[O]c2cccc3cccnc23)cc1
HL-60(TB) leukemia
  GI50: 0.314 µM
  TGI: > 100 µM
CAKI-1 renal
  GI50: 0.92 µM
  TGI: 2.2 µM
UACC-257 melanoma
  GI50: 0.302 µM
  TGI: 0.836 µM
TK-10 renal
  GI50: 1.67 µM
  TGI: 3.1 µM
NCI-H226 lung
  GI50: 1.38 µM
  TGI: 2.85 µM
NCI-H23 lung
  GI50: 0.508 µM
  TGI: 1.84 µM
UO-31 renal
  GI50: 0.363 µM
  TGI: 1.39 µM
OVCAR-5 ovarian
  GI50: 0.338 µM
  TGI: 1.06 µM
SK-OV-3 ovarian
  GI50: 0.492 µM
  TGI: 1.57 µM
MALME-3M melanoma
  GI50: 0.266 µM
  TGI: 0.689 µM

## Nc1nc2c(ncn2C2CCC(CO)O2)c(=O)n1C(=O)c1ccccc1 (stereo unspecified)
HL-60(TB) leukemia
  TGI: > 100 µM
CAKI-1 renal
  TGI: > 100 µM
UACC-257 melanoma
  TGI: > 100 µM
TK-10 renal
  TGI: > 100 µM
NCI-H226 lung
  TGI: > 100 µM
NCI-H23 lung
  TGI: > 100 µM
UO-31 renal
  TGI: > 100 µM
OVCAR-5 ovarian
  TGI: > 100 µM
SK-OV-3 ovarian
  TGI: > 100 µM
MALME-3M melanoma
  TGI: > 100 µM

## CC(C)N1CC2CN(Cc3ccccc3)CC(C1)C2=O
HL-60(TB) leukemia
  TGI: > 100 µM
CAKI-1 renal
  TGI: > 100 µM
UACC-257 melanoma
  TGI: > 100 µM
TK-10 renal
  TGI: > 100 µM
NCI-H226 lung
  TGI: > 100 µM
NCI-H23 lung
  TGI: > 100 µM
UO-31 renal
  TGI: > 100 µM
OVCAR-5 ovarian
  TGI: > 100 µM
SK-OV-3 ovarian
  TGI: > 100 µM
MALME-3M melanoma
  TGI: > 100 µM

## O=C(/C=C/c1ccco1)c1cc(F)c(Cl)cc1Cl
HL-60(TB) leukemia
  GI50: 30.8 µM
  TGI: > 100 µM
CAKI-1 renal
  GI50: 32.7 µM
  TGI: > 100 µM
UACC-257 melanoma
  GI50: 24.6 µM
  TGI: 50.5 µM
TK-10 renal
  GI50: 28.4 µM
  TGI: 90.1 µM
NCI-H226 lung
  GI50: 19.9 µM
  TGI: 47.2 µM
NCI-H23 lung
  GI50: 31 µM
  TGI: > 100 µM
UO-31 renal
  GI50: 17.1 µM
  TGI: 34 µM
OVCAR-5 ovarian
  GI50: 22.5 µM
  TGI: 48.9 µM
SK-OV-3 ovarian
  GI50: 24.5 µM
  TGI: 80.1 µM
MALME-3M melanoma
  GI50: 16.5 µM
  TGI: 38.7 µM

## O=C1C(Cl)=C(Sc2nnc3c4ccccc4c4ccccc4c3n2)C(=O)c2ccccc21
HL-60(TB) leukemia
  TGI: 7.59 µM
CAKI-1 renal
  TGI: 31.9 µM
UACC-257 melanoma
  TGI: 30 µM
TK-10 renal
  TGI: 37.4 µM
NCI-H226 lung
  TGI: 40.9 µM
NCI-H23 lung
  TGI: 19.4 µM
UO-31 renal
  TGI: 28.4 µM
OVCAR-5 ovarian
  TGI: 45.3 µM
SK-OV-3 ovarian
  TGI: 55.3 µM
MALME-3M melanoma
  TGI: 11.6 µM

## CC1=C(O)c2cn(C)cc2C(=O)C1=O
HL-60(TB) leukemia
  TGI: > 100 µM
CAKI-1 renal
  TGI: > 100 µM
UACC-257 melanoma
  TGI: > 100 µM
TK-10 renal
  TGI: > 100 µM
NCI-H226 lung
  TGI: > 100 µM
NCI-H23 lung
  TGI: > 100 µM
UO-31 renal
  TGI: > 100 µM
OVCAR-5 ovarian
  TGI: > 100 µM
SK-OV-3 ovarian
  TGI: > 100 µM
MALME-3M melanoma
  TGI: > 100 µM

## CN(C)c1ccc(/C=C/C(=O)[O-])cc1.CN(C)c1ccc(/C=C/C(=O)[O-])cc1.[Cu+2]
HL-60(TB) leukemia
  TGI: > 100 µM
CAKI-1 renal
  TGI: > 100 µM
UACC-257 melanoma
  TGI: > 100 µM
TK-10 renal
  GI50: > 100 µM
  TGI: > 100 µM
NCI-H226 lung
  TGI: > 100 µM
NCI-H23 lung
  GI50: > 100 µM
  TGI: > 100 µM
UO-31 renal
  TGI: > 100 µM
OVCAR-5 ovarian
  TGI: 60.3 µM
SK-OV-3 ovarian
  TGI: > 95 µM
MALME-3M melanoma
  TGI: > 100 µM

## Nc1cc(F)ccc1CC(=O)O
HL-60(TB) leukemia
  TGI: > 100 µM
CAKI-1 renal
  TGI: > 100 µM
UACC-257 melanoma
  TGI: > 100 µM
TK-10 renal
  TGI: > 100 µM
NCI-H226 lung
  TGI: > 100 µM
NCI-H23 lung
  TGI: > 100 µM
UO-31 renal
  TGI: > 100 µM
OVCAR-5 ovarian
  TGI: > 100 µM
SK-OV-3 ovarian
  TGI: > 100 µM
MALME-3M melanoma
  TGI: > 100 µM

## C#CCNC(=O)N(CC#C)N=O
HL-60(TB) leukemia
  TGI: 63.4 µM
CAKI-1 renal
  TGI: > 100 µM
UACC-257 melanoma
  TGI: > 100 µM
TK-10 renal
  TGI: > 100 µM
NCI-H226 lung
  TGI: > 100 µM
NCI-H23 lung
  TGI: > 100 µM
UO-31 renal
  TGI: > 100 µM
OVCAR-5 ovarian
  TGI: > 100 µM
SK-OV-3 ovarian
  TGI: > 100 µM
MALME-3M melanoma
  TGI: > 100 µM

## Cc1ccc(NC(=O)c2ccc(CN3CCN(C)CC3)cc2)cc1Nc1nccc(-c2cccnc2)n1
HL-60(TB) leukemia
  GI50: 16 µM
  TGI: 35.9 µM
CAKI-1 renal
  GI50: 30.3 µM
  TGI: 67 µM
UACC-257 melanoma
  GI50: 17.1 µM
  TGI: 38.5 µM
TK-10 renal
  GI50: 28.1 µM
  TGI: 70.6 µM
NCI-H226 lung
  GI50: 19.6 µM
  TGI: 49.9 µM
NCI-H23 lung
  GI50: 15 µM
  TGI: 38.2 µM
UO-31 renal
  GI50: 22.3 µM
  TGI: 53.8 µM
OVCAR-5 ovarian
  GI50: 2.08 µM
  TGI: 39.5 µM
SK-OV-3 ovarian
  GI50: 28.7 µM
  TGI: 80.9 µM
MALME-3M melanoma
  GI50: 16.5 µM
  TGI: 32 µM
